Values quoted from earlier work, collected in article PMC10010643 (Cancer Chemotherapy and Pharmacology, 2023).

Experiments:
galectin-3 [1] = test system: galectin-3; design: method as in PMID 33214209; settings: inhaled; cited from earlier work
galectin-3 [2] = settings: cited from earlier work
[3] = design: method as in PMID 36154172; settings: cited from earlier work

## OC[C@H]1O[C@@H](S[C@@H]2O[C@H](CO)[C@H](O)[C@H](n3cc(-c4cccc(F)c4)nn3)[C@H]2O)[C@H](O)[C@@H](n2cc(-c3cccc(F)c3)nn2)[C@H]1O [GB0139]
galectin-3 [1]
  Galectin-3 expression: suppressed galectin-3 expression
  Plasma biomarkers associated with IPF disease progression: decreased plasma biomarkers associated with IPF disease progression
galectin-3 [2]
  Binding affinity for galectin-3: high binding affinity
[3]
  Elimination if administered systemically: prompt elimination
  Intestinal absorption: poor intestinal absorption
